The numbers were not newly measured in patent publication US6403571B2, “Combination therapy for reducing the risks associated with cardiovascular disease” (Merck & Co., Inc., priority 1996, dated 2002), which cites them from elsewhere.

For data set [1], the target named is T1, GP IIb/IIIa (Homo sapiens, UniProt P05106+P08514).
In data set [2] the target is T1, GP IIb/IIIa. The conditions noted are these: for selectivity for GP IIb/IIIa: administered intravenously.
For data set [3] the following is noted: prodrug, requires biotransformation in vivo to its active form.
For data set [4], the target named is αvβ3 (Homo sapiens, UniProt P05106+P06756).

Structures can show the parent of a compound that is named as a salt. Where a SMILES comes first, the peptide text is derived from it. Bridges are numbered along the chain shown (N, C = ends). [ ]: non-standard residue; d: D form. hArg = N=C(N)NCCCC[C@H](N)C(=O)O; Mpa = O=C(O)CCS

αvβ3, sequence (P06756 31-889 limits assumed): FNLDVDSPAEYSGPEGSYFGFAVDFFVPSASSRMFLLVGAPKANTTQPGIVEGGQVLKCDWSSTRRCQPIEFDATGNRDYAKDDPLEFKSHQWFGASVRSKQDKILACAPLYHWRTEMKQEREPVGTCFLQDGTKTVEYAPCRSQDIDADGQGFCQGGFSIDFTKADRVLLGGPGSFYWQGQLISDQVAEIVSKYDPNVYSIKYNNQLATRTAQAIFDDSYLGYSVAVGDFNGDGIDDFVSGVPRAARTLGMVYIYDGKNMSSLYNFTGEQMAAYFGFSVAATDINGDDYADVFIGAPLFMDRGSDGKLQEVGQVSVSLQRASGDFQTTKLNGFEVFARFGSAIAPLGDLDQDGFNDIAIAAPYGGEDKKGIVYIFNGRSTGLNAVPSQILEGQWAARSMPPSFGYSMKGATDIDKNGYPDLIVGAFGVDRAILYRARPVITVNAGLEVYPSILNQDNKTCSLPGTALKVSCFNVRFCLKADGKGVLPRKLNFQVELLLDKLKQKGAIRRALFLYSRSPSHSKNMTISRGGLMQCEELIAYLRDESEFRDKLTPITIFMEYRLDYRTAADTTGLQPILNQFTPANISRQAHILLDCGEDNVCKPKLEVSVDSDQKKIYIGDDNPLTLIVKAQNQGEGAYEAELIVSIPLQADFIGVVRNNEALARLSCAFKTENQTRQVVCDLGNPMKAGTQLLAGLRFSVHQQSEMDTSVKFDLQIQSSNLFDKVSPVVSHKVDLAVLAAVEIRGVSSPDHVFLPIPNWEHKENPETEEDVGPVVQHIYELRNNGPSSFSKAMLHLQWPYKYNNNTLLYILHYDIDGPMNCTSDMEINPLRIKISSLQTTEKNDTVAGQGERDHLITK
αvβ3, sequence (P06756 891-1048 partner limits assumed): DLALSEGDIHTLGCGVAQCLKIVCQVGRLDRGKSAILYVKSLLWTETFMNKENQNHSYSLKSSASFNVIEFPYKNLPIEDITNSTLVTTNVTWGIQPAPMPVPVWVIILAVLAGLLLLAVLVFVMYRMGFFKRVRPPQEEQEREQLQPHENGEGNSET
αvβ3, sequence (P05106 27-788): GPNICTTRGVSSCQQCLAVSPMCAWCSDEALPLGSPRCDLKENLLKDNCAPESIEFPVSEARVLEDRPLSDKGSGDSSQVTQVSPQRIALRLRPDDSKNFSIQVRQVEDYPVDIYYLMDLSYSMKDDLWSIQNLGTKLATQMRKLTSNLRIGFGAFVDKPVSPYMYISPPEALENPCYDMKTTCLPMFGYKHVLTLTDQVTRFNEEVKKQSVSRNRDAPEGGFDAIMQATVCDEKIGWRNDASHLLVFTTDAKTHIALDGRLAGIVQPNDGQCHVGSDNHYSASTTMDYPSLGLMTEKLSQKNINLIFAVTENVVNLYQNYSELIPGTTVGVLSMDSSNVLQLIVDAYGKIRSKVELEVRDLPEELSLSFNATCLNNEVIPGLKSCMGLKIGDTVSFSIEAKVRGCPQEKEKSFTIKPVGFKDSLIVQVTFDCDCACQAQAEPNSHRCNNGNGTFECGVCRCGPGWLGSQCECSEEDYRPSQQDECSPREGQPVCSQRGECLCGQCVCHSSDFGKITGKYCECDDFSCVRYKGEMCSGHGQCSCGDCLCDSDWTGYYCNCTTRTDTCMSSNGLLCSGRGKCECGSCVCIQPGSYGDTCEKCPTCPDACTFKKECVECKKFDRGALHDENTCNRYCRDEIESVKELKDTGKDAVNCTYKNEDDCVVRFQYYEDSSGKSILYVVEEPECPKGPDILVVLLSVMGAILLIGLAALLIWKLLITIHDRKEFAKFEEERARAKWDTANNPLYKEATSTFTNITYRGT

With “7E3: monoclonal antibody which blocks the GP IIb/IIIa receptor and the αvβ3 receptor [Compound 7E3]”, in data set [1] (7E3 added to heparin and aspirin, increasing from 3%), the need for transfusion is recorded as 6%. In addition, the “incidence of patients with decreased hematocrit” value in data set [1] (7E3 added to heparin and aspirin, increasing from 7%) was 15%. For the same molecule, the “combined endpoints of death, non-fatal myocardial infarction (MI) and need for urgent revascularization” value in data set [1] (7E3 added to standard regime of heparin and aspirin, decrease from 12.8% without blockade) was 8.3%.
`CCCCS(=O)(=O)N[C@@H](Cc1ccc(OCCCCC2CCNCC2)cc1)C(=O)O` [MK-383, 2-S-(n-Butylsulfonylamino)-3[4-piperidin-4-yl)butyloxyphenyl]propionic acid hydrochloride]: the “selectivity for GP IIb/IIIa” value in data set [2] is recorded as “selective”.
Turning to `N=C(N)c1ccc(C(=O)N[C@@H](Cc2ccc(O)cc2)C(=O)N2CCC(OCC(=O)O)CC2)cc1` [Ro 44-9883], the “selectivity for GP IIb/IIIa” value in data set [2] is “selective”.
Take `C#C[C@H](CC(=O)OCC)NC(=O)CCC(=O)Nc1ccc(C(=N)N)cc1` [SC54684, ethyl 3-[[4-[[4-(aminoiminomethyl)phenyl]amino]-1,4-dioxobutyl]amino]-4-pentynoate]: in data set [3], the oral bioavailability result was “high oral bioavailability”.
As to `N=C(N)NCCCC[C@@H]1NC(=O)CCSSC[C@@H](C(N)=O)NC(=O)[C@@H]2CCCN2C(=O)[C@H](Cc2c[nH]c3ccccc23)NC(=O)[C@H](CC(=O)O)NC(=O)CNC1=O` [Integrelin] ([Mpa][hArg]GDWPC-NH2; disulfide 1-7), the “effect on ligand binding to αvβ3” value in data set [4] is given as “very little effect”. The “effect on ligand binding to GP IIb/IIIa” value in data set [2] is reported as “inhibits ligand binding”.
